Laboratory results taken from patent US7915270B2, “Oxazole ketones as modulators of fatty acid amide hydrolase” (The Scripps Research Institute, priority 2006, dated 2011).
Like-named read-outs stand apart in the source and are kept apart here.

Experiments:
[1] = target: T1, FAAH (Rattus norvegicus, UniProt P97612); test: Assay Method 1A: FAAH enzyme assay, 14C-oleamide hydrolysis, solubilized liver plasma membrane extract;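 further: ki obtained by Dixon analysis, taking the x-intercept of inhibitor concentration versus reciprocal rate plots at fixed substrate level and correcting for substrate concentration relative to Km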
T1 sequence (P97612 1-579): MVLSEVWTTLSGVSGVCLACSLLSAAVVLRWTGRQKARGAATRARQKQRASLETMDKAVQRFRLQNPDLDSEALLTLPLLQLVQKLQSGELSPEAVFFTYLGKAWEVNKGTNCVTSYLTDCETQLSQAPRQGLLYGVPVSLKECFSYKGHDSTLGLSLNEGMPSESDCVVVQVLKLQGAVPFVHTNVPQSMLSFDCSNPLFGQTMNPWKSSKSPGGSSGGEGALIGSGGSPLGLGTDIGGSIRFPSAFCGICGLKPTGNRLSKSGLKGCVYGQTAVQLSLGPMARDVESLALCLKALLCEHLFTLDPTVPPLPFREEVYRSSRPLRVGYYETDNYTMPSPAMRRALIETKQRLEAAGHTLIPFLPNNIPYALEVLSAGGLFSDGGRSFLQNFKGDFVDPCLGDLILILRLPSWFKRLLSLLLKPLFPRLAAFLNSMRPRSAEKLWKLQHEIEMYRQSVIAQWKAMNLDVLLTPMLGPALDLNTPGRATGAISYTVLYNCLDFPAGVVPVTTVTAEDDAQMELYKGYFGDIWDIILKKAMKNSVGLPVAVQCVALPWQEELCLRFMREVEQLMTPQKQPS
Method: Linear least squares fits were used for all reaction progress curves and R^2 values were consistently >0.97. […] Ki values were determined by the Dixon Method (x-intercepts of weighted linear fits of [I] versus 1/rate plots at constant substrate concentration, which were converted to Ki values using the formula Ki=−xint/[1+[S]/Km]).

[2] = Solubility determination in water; assay type: physicochemical; details: thermodynamic from solid; in water at 5, 1 and 0.1 mg/mL; pH of resulting solutions 7-8.5
Method: Physical Chemical Properties
Solubility determinations were made by mixing the test compound in water at 5 mg/mL, 1 mg/mL, and 0.1 mg/mL concentrations. The pH of the resulting solutions was 7-8.5.

[3] = target: T2, FAAH (Homo sapiens, UniProt O00519); test: Assay Method 1B: FAAH assay, 3H-anandamide hydrolysis in cell homogenate (T84 or SK-N-MC cells transfected with human FAAH); assay type: biochemical; parameters: expressed in transfected cells; details: 3H-AEA 80 nM, rt 1 h, pH 9
T2 sequence (O00519 1-579): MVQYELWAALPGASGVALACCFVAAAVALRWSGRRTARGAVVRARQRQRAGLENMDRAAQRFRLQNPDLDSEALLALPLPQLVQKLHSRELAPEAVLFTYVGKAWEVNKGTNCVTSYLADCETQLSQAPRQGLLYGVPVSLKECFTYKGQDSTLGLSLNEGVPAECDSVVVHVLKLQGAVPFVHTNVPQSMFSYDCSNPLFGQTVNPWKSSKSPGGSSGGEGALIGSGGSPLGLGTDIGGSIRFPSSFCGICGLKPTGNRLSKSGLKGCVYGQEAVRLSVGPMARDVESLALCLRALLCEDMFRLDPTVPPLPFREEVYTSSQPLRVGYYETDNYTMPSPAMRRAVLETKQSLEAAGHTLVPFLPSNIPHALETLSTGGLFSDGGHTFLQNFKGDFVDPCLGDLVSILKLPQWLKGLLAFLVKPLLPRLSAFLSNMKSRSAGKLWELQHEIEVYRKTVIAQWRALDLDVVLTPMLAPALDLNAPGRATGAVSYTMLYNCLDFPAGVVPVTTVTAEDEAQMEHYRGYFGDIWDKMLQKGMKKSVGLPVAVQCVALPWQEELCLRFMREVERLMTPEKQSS

| SMILES | Ki ([1]; read-out: Assay 1A Ki, liver plasma membrane extract containing FAAH, 14C-oleamide, pH 9.0, 20-23 °C, Dixon method) | solubility [2] | IC50 [3] | Ki [1] |
| --- | --- | --- | --- | --- |
| O=C(O)c1cccc(-c2cnc(C(=O)CCCCCCc3ccccc3)o2)n1 [Example 37, 6-(2-(7-Phenylheptanoyl)oxazol-5-yl)picolinic acid] | 20 nM | > 5000 µg/mL | 0.4 nM |  |
| O=C(O)c1ccc(-c2cnc(C(=O)CCCCCCc3ccccc3)o2)nc1 [Example 38, 6-(2-(7-Phenylheptanoyl)oxazol-5-yl)nicotinic acid] |  | > 5000 µg/mL | 0.2 nM | 7 nM |
